Measurements as given in US7943774B2 (priority 2008, dated 2011).

Assay: log P (pH2.3)
Assay type: physicochemical
Details: method [a]: HPLC, acidic range, pH 2.3, 0.1% aqueous phosphoric acid and acetonitrile

**Q.** For `Cc1cc(C)n(CC(=O)N2CCC(c3nc(CCc4ccccc4)cs3)CC2)n1` [Example I-54], which log p is on record?
**A.** 2.86^[a]

Same assay, conditions: method [b]: LC-MS, acidic range, pH 2.7, 0.1% aqueous formic acid and acetonitrile

**Q.** Which log p does the source give for `Cc1cc(C(F)(F)F)nn1CC(=O)N1CCC(c2nc(/C=C\c3ccccc3)cs2)CC1` [Example I-1] here?
**A.** 3.91^[b]

**Q.** With `O=C(Cn1ccc(C(F)(F)F)n1)N1CCC(c2nc(/C=C\c3ccccc3)cs2)CC1` [Example I-7] as the molecule, how does the log p read?
**A.** 3.72^[b]

**Q.** For `Cc1c(Cl)c(C(F)(F)F)nn1CC(=O)N1CCC(c2nc(/C=C\c3ccccc3)cs2)CC1` [Example I-8], which log p is on record?
**A.** 4.56^[b]

**Q.** With `Cc1cc(C(F)(F)F)nn1CC(=O)N1CCC(c2nc(/C=C\c3ccc(Cl)cc3)cs2)CC1` [Example I-9] as the molecule, how does the log p read?
**A.** 4.41^[b]

**Q.** For `O=C(Cn1ccc(C(F)(F)F)n1)N1CCC(c2nc(/C=C\c3ccc(Cl)cc3)cs2)CC1` [Example I-10], which log p is on record?
**A.** 4.2^[b ]

**Q.** With `Cc1c(Cl)c(C(F)(F)F)nn1CC(=O)N1CCC(c2nc(/C=C\c3ccc(Cl)cc3)cs2)CC1` [Example I-11] as the molecule, how does the log p read?
**A.** 4.92^[b]

**Q.** For `COc1ccc(/C=C\c2csc(C3CCN(C(=O)Cn4nc(C(F)(F)F)cc4C)CC3)n2)cc1` [Example I-12], which log p is on record?
**A.** 3.9^[b]

**Q.** Which log p does the source give for `COc1ccc(/C=C\c2csc(C3CCN(C(=O)Cn4nc(C(F)(F)F)c(Cl)c4C)CC3)n2)cc1` [Example I-14] here?
**A.** 4.46^[b]

**Q.** Which log p does the source give for `Cc1cc(C(F)(F)F)nn1CC(=O)N1CCC(c2nc(/C=C\c3cccc(C(F)(F)F)c3)cs2)CC1` [Example I-15] here?
**A.** 4.51^[b]

**Q.** Which log p does the source give for `O=C(Cn1ccc(C(F)(F)F)n1)N1CCC(c2nc(/C=C\c3cccc(C(F)(F)F)c3)cs2)CC1` [Example I-16] here?
**A.** 4.3^[b]

**Q.** With `Cc1c(Cl)c(C(F)(F)F)nn1CC(=O)N1CCC(c2nc(/C=C\c3cccc(C(F)(F)F)c3)cs2)CC1` [Example I-17] as the molecule, how does the log p read?
**A.** 5.03^[b]

**Q.** Which log p does the source give for `O=C(Cn1ccc(C(F)(F)F)n1)N1CCC(c2nc(/C=C\c3cccc4ccccc34)cs2)CC1` [Example I-18] here?
**A.** 4.35^[b]

**Q.** For `Cc1c(Cl)c(C(F)(F)F)nn1CC(=O)N1CCC(c2nc(/C=C\c3cccc4ccccc34)cs2)CC1` [Example I-19], which log p is on record?
**A.** 5.14^[b]

**Q.** For `O=C(Cn1ccc(C(F)(F)F)n1)N1CCC(c2nc(/C=C\c3ccc4ccccc4c3)cs2)CC1` [Example I-21], which log p is on record?
**A.** 4.35^[b]

**Q.** With `Cc1c(Cl)c(C(F)(F)F)nn1CC(=O)N1CCC(c2nc(/C=C\c3ccc4ccccc4c3)cs2)CC1` [Example I-22] as the molecule, how does the log p read?
**A.** 5.08^[b]

**Q.** With `Cc1cc(C(F)(F)F)nn1CC(=O)N1CCC(c2nc(/C=C\Cc3ccccc3)cs2)CC1` [Example I-23] as the molecule, how does the log p read?
**A.** 4.41^[b]

**Q.** With `Cc1cc(C(F)(F)F)nn1CC(=O)N1CCC(c2nc(/C=C/c3ccccc3)cs2)CC1` [Example I-26] as the molecule, how does the log p read?
**A.** 3.99^[b]

**Q.** With `Cc1cc(C(F)F)n(CC(=O)N2CCC(c3nc(CCc4ccccc4)cs3)CC2)n1` [Example I-35] as the molecule, how does the log p read?
**A.** 3.37^[b]

**Q.** With `O=C(Cn1nc(C(F)(F)F)cc1C(F)(F)F)N1CCC(c2nc(CCc3cccc4ccccc34)cs2)CC1` [Example I-43] as the molecule, how does the log p read?
**A.** 4.89^[b]

**Q.** Which log p does the source give for `O=C(Cn1ccc(C(F)(F)F)n1)N1CCC(c2nc(CCc3ccccc3)cs2)CC1` [Example I-55] here?
**A.** 3.57^[b]

**Q.** With `O=C(Cc1cccc(C(F)(F)F)c1)N1CCC(c2nc(CCc3ccccc3)cs2)CC1` [Example I-56] as the molecule, how does the log p read?
**A.** 4.26^[b]

**Q.** For `O=C(Cc1cccc(Cl)c1)N1CCC(c2nc(CCc3ccccc3)cs2)CC1` [Example I-57], which log p is on record?
**A.** 4.1^[b]

**Q.** Which log p does the source give for `O=C(Cn1nc(C(F)(F)F)cc1C(F)(F)F)N1CCC(c2nc(CCc3ccccc3)cs2)CC1` [Example I-59] here?
**A.** 4.45^[b]

**Q.** Which log p does the source give for `Cc1c(Cl)c(C(F)(F)F)nn1CC(=O)N1CCC(c2nc(CCc3ccccc3)cs2)CC1` [Example I-60] here?
**A.** 4.34^[b]

**Q.** For `O=C(c1cccc(C(F)(F)F)c1)N1CCC(c2nc(CCc3ccccc3)cs2)CC1` [Example I-62], which log p is on record?
**A.** 4.23^[b]

**Q.** Which log p does the source give for `CC(C(=O)N1CCC(c2nc(CCc3ccccc3)cs2)CC1)n1ccc(C(F)(F)F)n1` (stereo not drawn) [Example I-68] here?
**A.** 3.93^[b]

**Q.** For `O=C(Cn1cccn1)N1CCC(c2nc(CCc3ccccc3)cs2)CC1` [Example I-69], which log p is on record?
**A.** 2.56^[b]

**Q.** Which log p does the source give for `Cc1nc(C2CCN(C(=O)Cn3nc(C(F)(F)F)cc3C)CC2)sc1CC(C)C` [Example I-73] here?
**A.** 3.75^[b]

**Q.** With `Cc1cc(C)n(CC(=O)N2CCC(c3nc(/C=C\c4cccc5ccccc45)cs3)CC2)n1` [Example I-76] as the molecule, how does the log p read?
**A.** 3.73^[b]

**Q.** Which log p does the source give for `Cc1cc(C)n(CC(=O)N2CCC(c3nc(/C=C/c4cccc5ccccc45)cs3)CC2)n1` [Example I-77] here?
**A.** 3.58^[b]

**Q.** Which log p does the source give for `Cc1cc(C)n(CC(=O)N2CCC(c3nc(CCCC(C)c4ccccc4)cs3)CC2)n1` (stereo not drawn) [Example I-83] here?
**A.** 3.83^[b]

**Q.** Which log p does the source give for `Cc1cc(C)n(CC(=O)N2CCC(c3nc(/C=C/c4ccccc4)cs3)CC2)n1` [Example I-84] here?
**A.** 3.04^[b]

**Q.** For `Cc1cc(C(F)(F)F)nn1CC(=O)N1CCC(c2nc(/C=C/c3cccc(C(F)(F)F)c3)cs2)CC1` [Example I-94], which log p is on record?
**A.** 4.46^[b]

**Q.** Which log p does the source give for `Cc1cc(C)n(CC(=O)N2CCC(c3nc(/C=C/c4cccc(C(F)(F)F)c4)cs3)CC2)n1` [Example I-96] here?
**A.** 3.56^[b]

**Q.** With `O=C(Cc1c(F)ccc(F)c1F)N1CCC(c2nc(C#Cc3cccc4ccccc34)cs2)CC1` [Example I-97] as the molecule, how does the log p read?
**A.** 4.71^[b]

**Q.** Which log p does the source give for `Cc1cc(C(F)(F)F)nn1CC(=O)N1CCC(c2nc(C#Cc3ccccc3)cs2)CC1` [Example I-99] here?
**A.** 3.82^[b]

Same assay, conditions: method [b]: LC-MS, acidic range, pH 2.7, 0.1% aqueous formic acid and acetonitrile; HPLC on reversed-phase C 18

**Q.** Which log p does the source give for `Cc1ccccc1C=Cc1csc(C2CCN(C(=O)Cn3nc(C(F)(F)F)cc3C)CC2)n1` (mixture of isomers) [Example I-166] here?
**A.** 4.23^[b]

**Q.** Which log p does the source give for `Cc1ccccc1C=Cc1csc(C2CCN(C(=O)Cn3nc(C(F)(F)F)cc3C(F)(F)F)CC2)n1` (mixture of isomers) [Example I-174] here?
**A.** 4.93^[b]

**Q.** For `O=C(Cn1nc(C(F)(F)F)cc1C(F)(F)F)N1CCC(c2nc(C=Cc3ccccc3Br)cs2)CC1` (mixture of isomers) [Example I-175], which log p is on record?
**A.** 4.99^[b]

**Q.** Which log p does the source give for `O=C(Cn1nc(C(F)(F)F)cc1C(F)(F)F)N1CCC(c2nc(C=Cc3c(F)cccc3F)cs2)CC1` (mixture of isomers) [Example I-176] here?
**A.** 4.88^[b]

**Q.** With `Cc1cc(C(F)(F)F)nn1CC(=O)N1CCC(c2nc(C=Cc3c(F)cccc3Cl)cs2)CC1` (mixture of isomers) [Example I-242] as the molecule, how does the log p read?
**A.** 4.48^[b]

Same assay, conditions: method [c]: LC-MS, neutral range, pH 7.8, 0.001 molar aqueous ammonium bicarbonate and acetonitrile

**Q.** Which log p does the source give for `Cc1cc(C)n(CC(=O)N2CCC(c3nc(C#Cc4cccc5ccccc45)cs3)CC2)n1` [Example I-74] here?
**A.** 3.85^[c]

**Q.** For `Cc1cc(C)n(CC(=O)N2CCC(c3nc(CCc4cccc5ccccc45)cs3)CC2)n1` [Example I-79], which log p is on record?
**A.** 3.39^[c]

**Q.** With `Cc1cc(C)n(CC(=O)N2CCC(c3nc(/C=C/CC(C)c4ccccc4)cs3)CC2)n1` (stereo not drawn) [Example I-85] as the molecule, how does the log p read?
**A.** 3.83^[c]

Same assay, conditions: reversed-phase HPLC column (C18); method [b]: LC-MS, acidic range, pH 2.7, 0.1% aqueous formic acid and acetonitrile

**Q.** Which chromatographic logP does the source give for `Cc1cc(C(F)(F)F)nn1CC(=O)N1CCC(c2nc(/C=C\c3ccc4ccccc4c3)cs2)CC1` [Example I-20, 2-[5-Methyl-3-(trifluoromethyl)-1H-pyrazol-1-yl]-1-(4-{4-[(Z)-2-(2-naphthyl)vinyl]-1,3-thiazol-2-yl}piperidin-1-yl)ethanone] here?
**A.** 4.61

**Q.** For `CCCCC(=O)N1CCC(c2nc(CCc3ccccc3)cs2)CC1` [Example I-58, 1-{4-[4-(2-Phenylethyl)-1,3-thiazol-2-yl]piperidin-1-yl}pentan-1-one], which chromatographic logP is on record?
**A.** 3.73

**Q.** For `O=C(c1cc(C(F)(F)F)ccc1C(F)(F)F)N1CCC(c2nc(CCc3ccccc3)cs2)CC1` [Example I-61, [2,5-Bis(trifluoromethyl)phenyl]{4-[4-(2-phenylethyl)-1,3-thiazol-2-yl]piperidin-1-yl}methanone], which chromatographic logP is on record?
**A.** 4.67

**Q.** With `O=C(Cc1ccsc1)N1CCC(c2nc(CCc3ccccc3)cs2)CC1` [Example I-63, 1-{4-[4-(2-Phenylethyl)-1,3-thiazol-2-yl]piperidin-1-yl}-2-(thiophen-3-yl)ethanone] as the molecule, how does the chromatographic logP read?
**A.** 3.47

**Q.** Which chromatographic logP does the source give for `Cc1c(Cl)c(C(F)(F)F)nn1C(C)C(=O)N1CCC(c2nc(CCc3ccccc3)cs2)CC1` (stereo not drawn) [Example I-64, 2-[4-Chloro-5-methyl-3-(trifluoromethyl)-1H-pyrazol-1-yl]-1-{4-[4-(2-phenylethyl)-1,3-thiazol-2-yl]piperidin-1-yl}propan-1-one] here?
**A.** 4.62

**Q.** Which chromatographic logP does the source give for `Cn1ncc(CC(=O)N2CCC(c3nc(CCc4ccccc4)cs3)CC2)c1Cl` [Example I-65, 2-(5-Chloro-1-methyl-1H-pyrazol-4-yl)-1-{4-[4-(2-phenylethyl)-1,3-thiazol-2-yl]piperidin-1-yl}ethanone] here?
**A.** 2.98

**Q.** Which chromatographic logP does the source give for `COc1ccc(CCC(=O)N2CCC(c3nc(CCc4ccccc4)cs3)CC2)cc1OC` [Example I-66, 3-(3,4-Dimethoxyphenyl)-1-{4-[4-(2-phenylethyl)-1,3-thiazol-2-yl]piperidin-1-yl}propan-1-one] here?
**A.** 3.43

**Q.** With `O=C(Cc1cc(C(F)(F)F)ccc1Cl)N1CCC(c2nc(CCc3ccccc3)cs2)CC1` [Example I-67, 2-[2-Chloro-5-(trifluoromethyl)phenyl]-1-{4-[4-(2-phenylethyl)-1,3-thiazol-2-yl]piperidin-1-yl}ethanone] as the molecule, how does the chromatographic logP read?
**A.** 4.73

**Q.** For `O=C(Cn1cc2ccccc2n1)N1CCC(c2nc(CCc3ccccc3)cs2)CC1` [Example I-70, 2-(2H-Indazol-2-yl)-1-{4-[4-(2-phenylethyl)-1,3-thiazol-2-yl]piperidin-1-yl}ethanone], which chromatographic logP is on record?
**A.** 3.14

**Q.** For `O=C(Cc1nc2ccccc2s1)N1CCC(c2nc(CCc3ccccc3)cs2)CC1` [Example I-71, 2-(1,3-Benzothiazol-2-yl)-1-{4-[4-(2-phenylethyl)-1,3-thiazol-2-yl]piperidin-1-yl}ethanone], which chromatographic logP is on record?
**A.** 3.68

**Q.** With `Cc1cc(C(F)(F)F)nn1CC(=O)N1CCC(c2nc(CCc3ccccc3)c(Br)s2)CC1` [Example I-78, 1-{4-[5-Bromo-4-(2-phenylethyl)-1,3-thiazol-2-yl]piperidin-1-yl}-2-[5-methyl-3-(trifluoromethyl)-1H-pyrazol-1-yl]ethanone] as the molecule, how does the chromatographic logP read?
**A.** 4.71

**Q.** With `C#Cc1csc(C2CCN(C(=O)Cn3nc(C(F)(F)F)cc3C)CC2)n1` [Example I-86, 1-[4-(4-Ethynyl-1,3-thiazol-2-yl)piperidin-1-yl]-2-[5-methyl-3-(trifluoromethyl)-1H-pyrazol-1-yl]ethanone] as the molecule, how does the chromatographic logP read?
**A.** 2.57
